This is an account of results in PubChem BioAssay (NCI).

Test systems include IGROV1 ovarian; HT29 colon; ACHN renal; CCRF-CEM leukemia; CAKI-1 renal; SK-MEL-5 melanoma; NCI/ADR-RES ovarian; MCF7 breast; PC-3 prostate; HS 578T breast.
Experiment in all cases: DTP human tumour cell line panel, 48 h

The structures appear in SMILES notation. Several values for one entry are separate records, joined by “and”; a condition that tells them apart may be missing. Identical values can stand only once.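 Five concentrations, 48 hours, 96-well plates. Abbreviation: GI50, concentration required for 50% inhibition of growth. The concentration for full growth arrest is given as TGI.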

Take `CC(=O)c1cccc(N2COC(C)(C)c3nc4ccccc4n3C2)c1`: the TGI in the test with IGROV1 ovarian, with HT29 colon, in the test with ACHN renal and in the test with CCRF-CEM leukemia was more than 100 µM each time.
For `O=C(Nc1cc(Cl)c(Cl)cc1Cl)C(=O)C1C=CCS1(=O)=O` (stereo unspecified), the TGI in the test on IGROV1 ovarian, in the test on HT29 colon, in the test with CAKI-1 renal, in the test on ACHN renal, with CCRF-CEM leukemia and with SK-MEL-5 melanoma was more than 100 µM each time.
Turning to `COc1ccc(N2C(=O)CC(Cl)C2=O)cc1` (stereo unspecified), the TGI in the test with IGROV1 ovarian is more than 100 µM; with HT29 colon, 31.7 µM; with NCI/ADR-RES ovarian, more than 100 µM; in the test with ACHN renal, 31.7 µM; in the test with MCF7 breast, more than 100 µM; with SK-MEL-5 melanoma it was more than 100 µM. In addition, the TGI in the test with PC-3 prostate and with HS 578T breast was more than 100 µM each time.
In the case of `COc1ccccc1N1C(=O)/C(=C/c2ccc(N(CCC#N)CCC#N)cc2C)N=C1c1cc([N+](=O)[O-])ccc1Cl`, the TGI in the test with IGROV1 ovarian, with HT29 colon, in the test on CAKI-1 renal, in the test on ACHN renal, with CCRF-CEM leukemia and in the test on SK-MEL-5 melanoma was more than 100 µM in each case.
Regarding `CCN(CC)CC(O)CNc1ccc(NCC2CO2)c2c1C(=O)c1ccccc1C2=O` (stereo unspecified), the GI50 in the test on IGROV1 ovarian was 0.657 µM; with HT29 colon, 0.275 µM; with CAKI-1 renal, 0.757 µM; in the test with ACHN renal it was 0.0514 µM; with MCF7 breast it was 0.0284 µM; in the test on SK-MEL-5 melanoma, 0.398 µM. Further, the GI50 in the test with PC-3 prostate was 0.395 µM. Besides, the TGI is 5.79 µM in the test on IGROV1 ovarian; 6.87 µM with HT29 colon; 0.815 µM in the test on NCI/ADR-RES ovarian; 2.59 µM in the test with CAKI-1 renal; 0.448 µM and 0.751 µM in the test on ACHN renal; 0.169 µM in the test with MCF7 breast. The TGI with SK-MEL-5 melanoma is 1.8 µM; in the test on PC-3 prostate, 3.06 µM; in the test with HS 578T breast, 24.1 µM.
`COc1ccc([N+]2=NC(c3ccc([N+](=O)[O-])cc3)=NN(c3ccccc3)C2)cc1`: the TGI in the test on IGROV1 ovarian is more than 100 µM; with HT29 colon, more than 100 µM; in the test on ACHN renal, more than 100 µM; in the test on CCRF-CEM leukemia, 92.8 µM and 52.1 µM; in the test on SK-MEL-5 melanoma, 61.5 µM and 83.9 µM.
For `Cc1cc(I)cc(CN(C)CCCN2CCSCC2)c1O`, the GI50 with IGROV1 ovarian was 33.3 µM; in the test with HT29 colon, 18.8 µM; with NCI/ADR-RES ovarian it was 24.8 µM; with CAKI-1 renal it was 20 µM; in the test on ACHN renal, 41 µM; in the test on MCF7 breast, 18.5 µM. Also, the GI50 in the test with SK-MEL-5 melanoma is 16.4 µM; in the test with PC-3 prostate it was 29.8 µM; with HS 578T breast, 19.1 µM. The TGI in the test on IGROV1 ovarian was more than 100 µM; with HT29 colon, 43.1 µM; in the test with NCI/ADR-RES ovarian, 76.5 µM; with CAKI-1 renal, 40.7 µM; with ACHN renal, more than 100 µM; in the test on MCF7 breast, 40.5 µM. The concentration for total growth inhibition (TGI) is 31 µM in the test with SK-MEL-5 melanoma, more than 100 µM in the test on PC-3 prostate and 48.3 µM with HS 578T breast.
In the case of `CCN(CC)CCC(=O)NC1c2ccc(Cl)cc2Oc2c(C)cccc21` (stereo unspecified), the TGI in the test with IGROV1 ovarian was 40 µM; with HT29 colon it was 28.9 µM; with NCI/ADR-RES ovarian, 39 µM; in the test on MCF7 breast, 31 µM; with CCRF-CEM leukemia it was 37 µM; with SK-MEL-5 melanoma, 26.1 µM. In the test with PC-3 prostate, this compound displayed a TGI of 26.7 µM.
In the case of `C=CC1(C(=O)O)CCC(C(C)(C)C)CC1` (stereo unspecified), the TGI in the test with IGROV1 ovarian, with HT29 colon, in the test with CAKI-1 renal, with ACHN renal and in the test on SK-MEL-5 melanoma was more than 100 µM throughout.
On to `Cc1c(NC(=O)C(C)(C)Br)c(=O)oc2c(C)c3occc(=O)c3cc12`, for which the TGI in the test on IGROV1 ovarian, with HT29 colon, with ACHN renal, in the test on CCRF-CEM leukemia and with SK-MEL-5 melanoma was more than 100 µM each time.
On to `Cc1cc(Cl)ccc1NC(=O)CCCC(=O)C1CCCC1=O` (stereo unspecified), for which the TGI in the test on IGROV1 ovarian, with HT29 colon, with CAKI-1 renal, in the test on ACHN renal, in the test with CCRF-CEM leukemia and with SK-MEL-5 melanoma was more than 100 µM each time.
In the case of `C=C1C(=O)O[C@H]2[C@H]1CC/C(CNC(=O)c1cc3cc(OC)ccc3[nH]1)=C\CC[C@@]1(C)O[C@@H]21`, the GI50 was 2.04 µM with IGROV1 ovarian; 1.41 µM in the test with HT29 colon; 6.07 µM in the test with NCI/ADR-RES ovarian; 1.97 µM with CAKI-1 renal; 1.24 µM in the test with ACHN renal; 1.97 µM with CCRF-CEM leukemia. In addition, the GI50 in the test with SK-MEL-5 melanoma is 2.01 µM; in the test on PC-3 prostate, 1.86 µM; with HS 578T breast, 2.88 µM. Also, the TGI was found to be 5.94 µM in the test on IGROV1 ovarian; 4.51 µM in the test on HT29 colon; 23.7 µM in the test with NCI/ADR-RES ovarian; 6.25 µM in the test with CAKI-1 renal; 2.84 µM with ACHN renal; 5.93 µM with CCRF-CEM leukemia. Also, the TGI in the test on SK-MEL-5 melanoma was determined as 4.85 µM; in the test with PC-3 prostate, 4.04 µM; with HS 578T breast it was 11.8 µM.
As for `O=[N+]([O-])c1cccc(C2N3CCCCC3[C@@H]3c4[nH]c5ccccc5c4CCN23)c1` (stereo partly specified), the TGI in the test with IGROV1 ovarian was 39.2 µM; in the test with HT29 colon, 19.8 µM; in the test on CAKI-1 renal it was more than 100 µM; with ACHN renal, 38.7 µM; with CCRF-CEM leukemia, 41 µM; with SK-MEL-5 melanoma, 27.2 µM.
Take `Cc1cc(C)c([O-])c(CN(C)CCN(C)Cc2cc(C)cc(C)c2[O-])c1.O=C([O-])c1cccc(C(=O)[O-])n1.[Ti+4]`: the GI50 in the test with IGROV1 ovarian is 3.2 µM; with NCI/ADR-RES ovarian, 2.71 µM; in the test on CAKI-1 renal it was 3.93 µM; in the test with ACHN renal it was 2.43 µM; in the test on MCF7 breast, 3.17 µM; in the test with SK-MEL-5 melanoma, 2.9 µM. The values for the GI50 with PC-3 prostate and in the test on HS 578T breast were 2.7 µM and 2.29 µM, respectively. Also, the TGI with IGROV1 ovarian, in the test on NCI/ADR-RES ovarian, in the test with CAKI-1 renal, in the test with ACHN renal, in the test with MCF7 breast and in the test with SK-MEL-5 melanoma was more than 100 µM each time. Further, the TGI in the test with PC-3 prostate and with HS 578T breast was more than 100 µM throughout.

By TGI is commonly meant the concentration at which net growth stops. Broadly, the GI50 is the concentration that inhibits growth by half.
